The compounds below were run against T1, SIRT1 (Homo sapiens, UniProt Q96EB6) (assay: Mass spectrometry based SIRT1 deacetylase activation assay (acetylated p53-derived peptide substrate)). Settings: not given.
T1 sequence (Q96EB6 1-747): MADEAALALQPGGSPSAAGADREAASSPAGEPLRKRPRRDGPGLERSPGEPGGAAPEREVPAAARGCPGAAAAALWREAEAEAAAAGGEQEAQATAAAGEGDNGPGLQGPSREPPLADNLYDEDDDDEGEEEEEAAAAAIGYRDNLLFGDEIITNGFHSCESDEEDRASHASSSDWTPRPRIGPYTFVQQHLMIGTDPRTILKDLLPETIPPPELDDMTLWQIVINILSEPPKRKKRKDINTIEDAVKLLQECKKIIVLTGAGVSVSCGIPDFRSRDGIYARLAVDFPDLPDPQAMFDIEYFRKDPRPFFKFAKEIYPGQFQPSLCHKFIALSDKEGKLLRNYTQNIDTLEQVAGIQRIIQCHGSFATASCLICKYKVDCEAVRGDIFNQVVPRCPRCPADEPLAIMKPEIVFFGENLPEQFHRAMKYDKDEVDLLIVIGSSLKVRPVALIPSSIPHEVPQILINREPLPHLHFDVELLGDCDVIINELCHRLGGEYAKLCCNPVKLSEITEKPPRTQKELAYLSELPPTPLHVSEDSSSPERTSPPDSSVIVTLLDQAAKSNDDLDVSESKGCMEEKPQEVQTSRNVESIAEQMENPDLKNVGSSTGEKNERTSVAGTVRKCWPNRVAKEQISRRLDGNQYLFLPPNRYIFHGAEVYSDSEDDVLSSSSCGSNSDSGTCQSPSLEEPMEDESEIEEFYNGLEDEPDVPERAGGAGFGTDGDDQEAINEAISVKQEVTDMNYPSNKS
Format: biochemical
Text: A mass spectrometry based assay was used to identify modulators of SIRT1 activity. The mass spectrometry based assay utilizes a peptide having 20 amino acid residues as follows: Ac-EE-K(biotin)-GQSTSSHSK(Ac)NleSTEG-K(5TMR)-EE-NH2 (SEQ ID NO: 1) wherein K(Ac) is an acetylated lysine residue and Nle is a norleucine. The peptide is labeled with the fluorophore 5TMR (excitation 540 nm/emission 580 nm) at the C-terminus. The sequence of the peptide substrate is based on p53 with several modifications. In addition, the methionine residue naturally present in the sequence was replaced with the norleucine because the methionine may be susceptible to oxidation during synthesis and purification.
The mass spectrometry assay is conducted as follows: 0.5 μM peptide substrate and 120 μM βNAD^+ is incubated with 10 nM SIRT1 for 25 minutes at 25° C. in a reaction buffer (50 mM Tris-acetate pH 8, 137 mM NaCl, 2.7 mM KCl, 1 mM MgCl2, 5 mM DTT, 0.05% BSA). Test compounds may be added to the reaction as described above. […] After the 25 minute incubation with SIRT1, 10 μL of 10% formic acid is added to stop the reaction. Reactions are sealed and frozen for later mass spec analysis. Determination of the mass of the substrate peptide allows for precise determination of the degree of acetylation (i.e. starting material) as compared to deacetylated peptide (product).
A control for inhibition of sirtuin activity is conducted by adding 1 μL of 500 mM nicotinamide as a negative control at the start of the reaction (e.g., permits determination of maximum sirtuin inhibition). A control for activation of sirtuin activity is conducted using 10 nM of sirtuin protein, with 1 μL of DMSO in place of compound, to determine the amount of deacetylation of the substrate at a given timepoint within the linear range of the assay. This timepoint is the same as that used for test compounds and, within the linear range, the endpoint represents a change in velocity.
For the above assay, SIRT1 protein was expressed and purified as follows. […] The protein was expressed by induction with 1 mM IPTG as an N-terminal His-tag fusion protein at 18° C. overnight and harvested at 30,000×g. Cells were lysed with lysozyme in lysis buffer (50 mM Tris-HCl, 2 mM Tris[2-carboxyethyl]phosphine (TCEP), 10 μM ZnCl2, 200 mM NaCl) and further treated with sonication for 10 min for complete lysis. The protein was purified over a Ni-NTA column (Amersham) and fractions containing pure protein were pooled, concentrated and run over a sizing column (Sephadex S200 26/60 global). The peak containing soluble protein was collected and run on an Ion-exchange column (MonoQ). Gradient elution (200 mM-500 mM NaCl) yielded pure protein. This protein was concentrated and dialyzed against dialysis buffer (20 mM Tris-HCl, 2 mM TCEP) overnight. The protein was aliquoted and frozen at −80° C. until further use.
Sirtuin modulating compounds that activated SIRT1 were identified using the assay described above and are shown below in Table 1. The EC1.5 values for the activating compounds are represented by A (EC1.5<1.0 uM), B (EC1.5 1-25 uM), C (EC1.5 >25 uM). The percent maximum fold activation is represented by A (Fold activation >200%) or B (Fold Activation <200%).

**Q.** Which EC1.5 does the source give for `Cc1nc(NC(=O)c2cccc3[nH]c(-c4ccccc4C(F)(F)F)nc23)sc1C` [Compound 344] here?
**A.** A (EC1.5<1.0 uM)

**Q.** What about the “Fold Act. (percent maximum fold activation)” value of the same compound?
**A.** A (Fold activation >200%)

**Q.** `O=C(Nc1nccs1)c1cccc2[nH]c(-c3ccc(N4CCOCC4)cc3)nc12` [Compound 268] was tested. Which EC1.5 did it give?
**A.** A (EC1.5<1.0 uM)

**Q.** And the “Fold Act. (percent maximum fold activation)” value?
**A.** A (Fold activation >200%)

**Q.** What does the source list for `Cc1noc(C)c1NC(=O)c1cccc2[nH]c(-c3cccc(C(F)(F)F)c3)nc12` [Compound 261]?
**A.** EC1.5: C (EC1.5 >25 uM); Fold Act. (percent maximum fold activation): B (Fold Activation <200%)

**Q.** Which EC1.5 does the source give for `O=C(Nc1cc[n+]([O-])cc1)c1cccc2[nH]c(-c3ccc(Cl)cc3C(F)(F)F)nc12` [Compound 338] here?
**A.** A (EC1.5<1.0 uM)

**Q.** What about the “Fold Act. (percent maximum fold activation)” value of the same compound?
**A.** A (Fold activation >200%)

**Q.** What does the source list for `O=C(Nc1cnccn1)c1cccc2[nH]c(-c3ccccc3)nc12` [Compound 201]?
**A.** EC1.5: B (EC1.5 1-25 uM); Fold Act. (percent maximum fold activation): A (Fold activation >200%)

**Q.** Which results are given for `O=C(NC1CCNCC1)c1cccc2[nH]c(-c3cccc(C(F)(F)F)c3)nc12` [Compound 298]?
**A.** EC1.5: B (EC1.5 1-25 uM); Fold Act. (percent maximum fold activation): A (Fold activation >200%)

**Q.** What does the source list for `O=C(Nc1nccs1)c1cccc2[nH]c(-c3ccccc3OCCN3CCOCC3)nc12` [Compound 340]?
**A.** EC1.5: A (EC1.5<1.0 uM); Fold Act. (percent maximum fold activation): A (Fold activation >200%)

**Q.** For `O=C(Nc1cccnc1)c1cccc2[nH]c(-c3cccc(N4CCOCC4)c3)nc12` [Compound 288], which EC1.5 is on record?
**A.** A (EC1.5<1.0 uM)

**Q.** What about the “Fold Act. (percent maximum fold activation)” value of the same compound?
**A.** A (Fold activation >200%)

Same assay, conditions: 0.5 μM peptide substrate, 120 μM βNAD+, 10 nM SIRT1, 25 min at 25° C.

**Q.** `Cn1cc(-c2nc3c(C(=O)Nc4nccs4)cccc3[nH]2)c(C(F)(F)F)n1` [Compound 477] was tested. Which “Fold Act. (percent maximum fold activation)” value did it give?
**A.** A (Fold activation >200%)

**Q.** For `O=C(Nc1nccs1)c1cccc2[nH]c(-c3ccc(OC4CCNCC4)cc3)nc12` [Compound 447], which “Fold Act. (percent maximum fold activation)” value is on record?
**A.** A (Fold activation >200%)

**Q.** With `CN1CCOc2cc(-c3nc4c(C(=O)Nc5cnccn5)cccc4[nH]3)cnc21` [Compound 473] as the compound, how does the “Fold Act. (percent maximum fold activation)” value read?
**A.** A (Fold activation >200%)

**Q.** For `O=C(NC1CCNCC1)c1cccc2[nH]c(-c3ccccc3C(F)(F)F)nc12` [Compound 431], which “Fold Act. (percent maximum fold activation)” value is on record?
**A.** B (Fold Activation <200%)

Same assay, conditions: 0.5 μM peptide substrate, 120 μM βNAD+, 10 nM SIRT1, 25 min at 25° C., read-out: EC1.5

**Q.** Which EC1.5 does the source give for `Cn1cc(-c2nc3c(C(=O)Nc4nccs4)cccc3[nH]2)c(C(F)(F)F)n1` [Compound 477] here?
**A.** < 1000 nM

**Q.** With `O=C(Nc1nccs1)c1cccc2[nH]c(-c3ccc(OC4CCNCC4)cc3)nc12` [Compound 447] as the compound, how does the EC1.5 read?
**A.** < 1000 nM

**Q.** For `CN1CCOc2cc(-c3nc4c(C(=O)Nc5cnccn5)cccc4[nH]3)cnc21` [Compound 473], which EC1.5 is on record?
**A.** 1000 to 25000 nM

**Q.** How did the EC1.5 turn out when `O=C(NC1CCNCC1)c1cccc2[nH]c(-c3ccccc3C(F)(F)F)nc12` [Compound 431] was run?
**A.** > 25000 nM

Same assay, conditions: 0.5 μM peptide substrate, 120 μM βNAD+, 10 nM SIRT1, 25 minutes at 25° C.

**Q.** Which EC1.5 does the source give for `O=C(Nc1cccc(CN2CCOCC2)n1)c1cccc2[nH]c(-c3ccc(Cl)cc3C(F)(F)F)nc12` [Compound 675] here?
**A.** A (EC1.5<1.0 uM)

**Q.** What about the “Fold Act. (percent maximum fold activation)” value of the same compound?
**A.** A (Fold activation >200%)

**Q.** For `O=C(Nc1cccc(OC[C@H](O)CO)c1)c1cncc2[nH]c(-c3ccccc3C(F)(F)F)nc12` [Compound 748], which EC1.5 is on record?
**A.** A (EC1.5<1.0 uM)

**Q.** What about the “Fold Act. (percent maximum fold activation)” value of the same compound?
**A.** A (Fold activation >200%)

**Q.** Which results are given for `Cc1cnc(NC(=O)c2cncc3[nH]c(-c4ccccc4C(F)(F)F)nc23)s1` [Compound 639]?
**A.** EC1.5: A (EC1.5<1.0 uM); Fold Act. (percent maximum fold activation): A (Fold activation >200%)

**Q.** With `O=C(Nc1ccccn1)c1cccc2[nH]c(-c3cnccc3C(F)(F)F)nc12` [Compound 704] as the compound, how does the EC1.5 read?
**A.** A (EC1.5<1.0 uM)

**Q.** And the “Fold Act. (percent maximum fold activation)” value?
**A.** A (Fold activation >200%)

**Q.** How did the EC1.5 turn out when `O=C(Nc1ccccn1)c1cc(N2CCCC2)cc2[nH]c(-c3ccccc3C(F)F)nc12` [Compound 791] was run?
**A.** A (EC1.5<1.0 uM)

**Q.** What about the “Fold Act. (percent maximum fold activation)” value of the same compound?
**A.** A (Fold activation >200%)

**Q.** For `CS(=O)(=O)c1ccc(F)cc1-c1nc2c(C(=O)Nc3nccs3)cccc2[nH]1` [Compound 600], which EC1.5 is on record?
**A.** B (EC1.5 1-25 uM)

**Q.** What about the “Fold Act. (percent maximum fold activation)” value of the same compound?
**A.** A (Fold activation >200%)

**Q.** Which results are given for `O=C(Nc1ccccn1)c1cccc2[nH]c(-c3cc(N4CC[C@@H](F)C4)ccc3C(F)(F)F)nc12` [Compound 668]?
**A.** EC1.5: A (EC1.5<1.0 uM); Fold Act. (percent maximum fold activation): B (Fold Activation <200%)

**Q.** Which EC1.5 does the source give for `O=C(Nc1nccs1)c1cncc2nc(-c3ccc(OC[C@H](O)CO)cc3C(F)F)[nH]c12` [Compound 808] here?
**A.** A (EC1.5<1.0 uM)

**Q.** What about the “Fold Act. (percent maximum fold activation)” value of the same compound?
**A.** A (Fold activation >200%)

From patent US8846947B2, “Benzimidazoles and related analogs as sirtuin modulators” (GlaxoSmithKline LLC, priority 2008, dated 2014)
